Experimental findings from patent publication US10219516B2, “Molecules having pesticidal utility, and intermediates, compositions, and processes, related thereto” (priority 2015, dated 2019) are described below.

Structures are written as SMILES.

Holding throughout (format): in vivo
For assay [1], the system named is Beet Armyworm (Spodoptera exigua, LAPHEG). As to the kind of experiment: Bioassay on Beet Armyworm (BAW), 128-well diet tray assay. Conditions: Beet Armyworm, 128-well diet tray assay, read-out: BAW rating. An outline of the steps:
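Second-instar larvae, one to five per well, placed on artificial diet surface-treated with 50 μg/cm^2 compound applied in 90:10 acetone-water and dried. Held 5–7 days at 25° C., 14:10 light-dark. Percent mortality recorded per well and averaged over eight wells.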

Assay [2] relates to Yellow Fever Mosquito (Aedes aegypti, AEDSAE). Nature of the assay: Bioassay on Yellow Fever Mosquito (YFM), 96-well plate larval assay. Particulars: Yellow Fever Mosquito, 96-well plate larval assay. The method, boiled down: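 Compound stocks at 4000 ppm in DMSO were diluted with 90:10 water/acetone, and 15 μL aliquots were dispensed into six replicate plates. About 1-day-old larvae in liver-powder water were added per well. Plates were covered and held at room temperature for 3 days before each well was scored for mortality.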

In assay [3] the test system is Cabbage Looper (Trichoplusia ni, TRIPNI). As to the kind of experiment: Bioassay on Cabbage Looper (CL), 128-well diet tray assay. Particulars: Trichoplusia ni; Cabbage Looper, 128-well diet tray assay; read-out: CL rating. The method, boiled down: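 Diet-incorporation-free surface assay: 50 μg/cm^2 compound in acetone-water (90:10), dried on diet; 1–5 2nd-instar larvae/well; 8 wells; vented cover; 25° C., 14:10 L:D, 5–7 d; % mortality averaged over wells.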

For the compound `O=C(Nc1ccc(F)cc1[N+](=O)[O-])c1cc(NC(=O)[C@H]2[C@H](c3cc(Cl)cc(Cl)c3)C2(Cl)Cl)ccc1Cl` [F554, 2-Chloro-5-((1R,3R)-2,2-dichloro-3-(3,5-dichlorophenyl)cyclopropane-1-carboxamido)-N-(4-fluoro-2-nitrophenyl)benzamide], the pest or weed control at 50 µg/cm2 in assay [1] and in assay [3] was 50 to 100% each time. Also, the YFM rating result in assay [2] is reported as “A (80-100)”.

Consider `O=C(Nc1ccc(F)cc1[N+](=O)[O-])c1cc(NC(=O)[C@H]2[C@H](c3ccc(Cl)c(Cl)c3)C2(Cl)Cl)ccc1Cl` [F555, 2-Chloro-5-((1R,3R)-2,2-dichloro-3-(3,4-dichlorophenyl)cyclopropane-1-carboxamido)-N-(4-fluoro-2-nitrophenyl)benzamide], for which the pest or weed control at 50 µg/cm2 in assay [1] and in assay [3] was 50 to 100% throughout. Also, the YFM rating result in assay [2] is recorded as “A (80-100)”.

In the case of `O=C(Nc1ccc(F)cc1[N+](=O)[O-])c1cc(NC(=O)[C@H]2[C@H](c3cc(Cl)c(Cl)c(Cl)c3)C2(Cl)Cl)ccc1Cl` [F556, 2-Chloro-5-((1R,3R)-2,2-dichloro-3-(3,4,5-trichlorophenyl)cyclopropane-1-carboxamido)-N-(4-fluoro-2-nitrophenyl)benzamide], the pest or weed control at 50 µg/cm2 in assay [1] and in assay [3] was 50 to 100% in each case. Also, in assay [2], the YFM rating entry is “A (80-100)”.

For `O=C(Nc1ccc(F)cc1[N+](=O)[O-])c1cc(NC(=O)[C@H]2[C@H](c3ccc(F)c(Cl)c3)C2(Cl)Cl)ccc1Cl` [F557, 2-Chloro-5-((1R,3R)-2,2-dichloro-3-(3-chloro-4-fluorophenyl)cyclopropane-1-carboxamido)-N-(4-fluoro-2-nitrophenyl)benzamide], the pest or weed control at 50 µg/cm2 in assay [1] and in assay [3] was 50 to 100% each time. For the same compound, the YFM rating entry in assay [2] is given as “A (80-100)”.

For `O=C(NC1CCc2ncccc2C1)c1cc(NC(=O)C2C(c3cc(Cl)cc(Cl)c3)C2(Cl)Cl)ccc1Cl` (stereo not drawn) [F567, 2-Chloro-5-trans-(2,2-dichloro-3-(3,5-dichlorophenyl)cyclopropane-1-carboxamido)-N-(5,6,7,8-tetrahydroquinolin-6-yl)benzamide], the pest or weed control at 50 µg/cm2 in assay [1] and in assay [3] was 50 to 100% each time. Further, the YFM rating result in assay [2] is “A (80-100)”.

On to `Nc1cc(F)c(NC(=O)c2cc(NC(=O)[C@H]3[C@H](c4cc(Cl)cc(Cl)c4)C3(Cl)Cl)ccc2Cl)cc1F` [F568, trans-N-(4-Amino-2,5-difluorophenyl)-2-chloro-5-((1R,3R)-2,2-dichloro-3-(3,5-dichlorophenyl)cyclopropane-1-carboxamido)benzamide], for which the pest or weed control at 50 µg/cm2 in assay [1] and in assay [3] was 50 to 100% each time. In addition, the YFM rating entry in assay [2] is listed as “A (80-100)”.

With `Nc1cc(F)c(NC(=O)c2cc(NC(=O)[C@H]3[C@H](c4ccc(Cl)c(Cl)c4)C3(Cl)Cl)ccc2Cl)cc1F` [F569, trans-N-(4-Amino-2,5-difluorophenyl)-2-chloro-5-((1R,3R)-2,2-dichloro-3-(3,4-dichlorophenyl)cyclopropane-1-carboxamido)benzamide], the pest or weed control at 50 µg/cm2 in assay [1] and in assay [3] was 50 to 100% each time. In assay [2], the YFM rating entry is “A (80-100)”.

As to `Nc1cc(F)c(NC(=O)c2cc(NC(=O)[C@H]3[C@H](c4cc(Cl)c(Cl)c(Cl)c4)C3(Cl)Cl)ccc2Cl)cc1F` [F570, trans-N-(4-Amino-2,5-difluorophenyl)-2-chloro-5-((1R,3R)-2,2-dichloro-3-(3,4,5-trichlorophenyl)cyclopropane-1-carboxamido)benzamide], the pest or weed control at 50 µg/cm2 in assay [1] and in assay [3] was 50 to 100% throughout. Further, in assay [2], the YFM rating entry is reported as “A (80-100)”.

Regarding `Nc1cc(F)c(NC(=O)c2cc(NC(=O)[C@H]3[C@H](c4ccc(F)c(Cl)c4)C3(Cl)Cl)ccc2Cl)cc1F` [F571, trans-N-(4-Amino-2,5-difluorophenyl)-2-chloro-5-((1R,3R)-2,2-dichloro-3-(3-chloro-4-fluorophenyl)cyclopropane-1-carboxamido)benzamide], the pest or weed control at 50 µg/cm2 in assay [1] and in assay [3] was 50 to 100% each time. For the same compound, in assay [2], the YFM rating result is reported as “A (80-100)”.

Regarding `O=C(Nc1ccc(F)cc1F)c1cc(NC(=O)[C@H]2[C@H](c3ccc(Cl)c(Br)c3)C2(Cl)Cl)ccc1Cl` [F572, 5-((1R,3R)-3-(3-Bromo-4-chlorophenyl)-2,2-dichlorocyclopropane-1-carboxamido)-2-chloro-N-(2,4-difluorophenyl)benzamide], the pest or weed control at 50 µg/cm2 in assay [1] and in assay [3] was 50 to 100% each time. In addition, the YFM rating entry in assay [2] is given as “A (80-100)”.

`O=C(Nc1ccc(F)cc1F)c1cc(NC(=O)[C@@H]2[C@@H](c3ccc(Cl)c(Br)c3)C2(Cl)Cl)ccc1Cl` [F573, 5-((1S,3S)-3-(3-Bromo-4-chlorophenyl)-2,2-dichlorocyclopropane-1-carboxamido)-2-chloro-N-(2,4-difluorophenyl)benzamide]: the pest or weed control at 50 µg/cm2 in assay [1] and in assay [3] was 50 to 100% in each case. In addition, the YFM rating entry in assay [2] is “A (80-100)”.

With `Nc1cc(F)ccc1NC(=O)c1cc(NC(=O)[C@H]2[C@H](c3cc(Cl)cc(Cl)c3)C2(Cl)Cl)ccc1Cl` [F575, N-(2-Amino-4-fluorophenyl)-2-chloro-5-((1R,3R)-2,2-dichloro-3-(3,5-dichlorophenyl)cyclopropane-1-carboxamido)benzamide], the pest or weed control at 50 µg/cm2 in assay [1] and in assay [3] was 50 to 100% each time. Further, the YFM rating result in assay [2] is listed as “A (80-100)”.

In the case of `Nc1cc(F)ccc1NC(=O)c1cc(NC(=O)[C@H]2[C@H](c3ccc(Cl)c(Cl)c3)C2(Cl)Cl)ccc1Cl` [F576, N-(2-Amino-4-fluorophenyl)-2-chloro-5-((1R,3R)-2,2-dichloro-3-(3,4-dichlorophenyl)cyclopropane-1-carboxamido)benzamide], the pest or weed control at 50 µg/cm2 in assay [1] and in assay [3] was 50 to 100% each time. Moreover, the YFM rating result in assay [2] is given as “A (80-100)”.

On to `Nc1cc(F)ccc1NC(=O)c1cc(NC(=O)[C@H]2[C@H](c3cc(Cl)c(Cl)c(Cl)c3)C2(Cl)Cl)ccc1Cl` [F577, N-(2-Amino-4-fluorophenyl)-2-chloro-5-((1R,3R)-2,2-dichloro-3-(3,4,5-trichlorophenyl)cyclopropane-1-carboxamido)benzamide], for which the pest or weed control at 50 µg/cm2 in assay [1] and in assay [3] was 50 to 100% in each case. For the same compound, the YFM rating result in assay [2] was “A (80-100)”.

As for `Nc1cc(F)ccc1NC(=O)c1cc(NC(=O)[C@H]2[C@H](c3ccc(F)c(Cl)c3)C2(Cl)Cl)ccc1Cl` [F578, N-(2-Amino-4-fluorophenyl)-2-chloro-5-((1R,3R)-2,2-dichloro-3-(3-chloro-4-fluorophenyl)cyclopropane-1-carboxamido)benzamide], the pest or weed control at 50 µg/cm2 in assay [1] and in assay [3] was 50 to 100% throughout. Also, the YFM rating entry in assay [2] was “A (80-100)”.

In the case of `Nc1cc(NC(=O)c2cc(NC(=O)[C@H]3[C@H](c4ccc(Cl)c(Br)c4)C3(Cl)Cl)ccc2Cl)c(F)cc1F` [F580, N-(5-Amino-2,4-difluorophenyl)-5-((1R,3R)-3-(3-bromo-4-chlorophenyl)-2,2-dichlorocyclopropane-1-carboxamido)-2-chlorobenzamide], the pest or weed control at 50 µg/cm2 in assay [1] and in assay [3] was 50 to 100% in each case. The YFM rating entry in assay [2] is reported as “A (80-100)”.

On to `O=C(Nc1ccc(F)cc1F)c1cc(NC(=O)C2C(c3cc(F)c(F)c(F)c3)C2(Cl)Cl)ccc1Cl` (stereo not drawn) [F581, 2-Chloro-5-trans-(2,2-dichloro-3-(3,4,5-trifluorophenyl)cyclopropane-1-carboxamido)-N-(2,4-difluorophenyl)benzamide], for which the pest or weed control at 50 µg/cm2 in assay [1] and in assay [3] was 50 to 100% each time. Also, the YFM rating result in assay [2] is recorded as “A (80-100)”.

In the case of `O=C(Nc1cc(F)c(F)c(Br)c1)c1cc(NC(=O)[C@H]2[C@H](c3cc(Cl)cc(Cl)c3)C2(Cl)Cl)ccc1Cl` [F583, N-(3-Bromo-4,5-difluorophenyl)-2-chloro-5-((1R,3R)-2,2-dichloro-3-(3,5-dichlorophenyl)cyclopropane-1-carboxamido)benzamide], the pest or weed control at 50 µg/cm2 in assay [1] and in assay [3] was 50 to 100% each time. Besides, the YFM rating entry in assay [2] is reported as “A (80-100)”.

Regarding `O=C(Nc1ccc(F)cc1F)c1cc(NC(=O)C2C(c3ccc(Cl)c(F)c3)C2(Cl)Cl)ccc1Cl` (stereo not drawn) [PF36, 2-Chloro-5-(trans)-2,2-dichloro-3-(4-chloro-3-fluorophenyl)cyclopropane-1-carboxamido)-N-(2,4-difluorophenyl)benzamide], the pest or weed control at 50 µg/cm2 in assay [1] and in assay [3] was 50 to 100% throughout. In assay [2], the YFM rating entry is “A (80-100)”.

Turning to `O=C(Nc1ccc(F)cc1)c1cc(NC(=O)C2C(c3cc(Cl)cc(Cl)c3)C2(F)Br)ccc1Cl` (stereo not drawn) [PF51, 5-(trans)-2-Bromo-3-(3,5-dichlorophenyl)-2-fluorocyclopropane-1-carboxamido)-2-chloro-N-(4-fluorophenyl)benzamide], the pest or weed control at 50 µg/cm2 in assay [1] and in assay [3] was 50 to 100% throughout. The YFM rating entry in assay [2] is on record as “B (More than 0-Less than 80)”.
